“Also recorded” adds a separate entry of the source. Like-named read-outs stand apart in the source and are kept apart here.
Assays:
[1] = system: AOM-induced colon tumors
Experimental: After 42 weeks of experimental diet feeding and total 52 weeks of experimental duration, the rats were necropsied. After necropsy of the rats, the colonic tumors were analyzed histologically. Histopathological evaluation colonic tumor has been completed by two pathologists independently. Colonic tumors were histopathologically classified to adenomas or adenocarcinomas either exophytic (non-invasive) or endophytic (invasive).
Colonic tumors (CTs) were induced by colon specific carcinogen, azoxymethane (AOM) (15 mg/kg by wt, once weekly for 2 weeks) in F344 rats at 8 weeks' age. […] Rats were killed by CO2 asphyxiation 36 weeks after second AOM and the colons were removed, rinsed in PBS, opened longitudinally, and flattened on a filter paper. The location and size of each tumor were noted. Tumors were removed, snap frozen, or fixed in 10% buffered formalin for 24 hours and transferred to 80% ethanol for histopathological analysis. The number and type of colon tumors (adenoma and adenocarcinoma) were analyzed histologically blinded to treatment groups and compared with control diet fed rat colonic tumors.

[2] = system: inflammatory cytokines and receptors; conditions: 800 ppm in diet, AOM-induced rat colon tumors
Experimental: Colonic tumors (CTs) were induced by colon specific carcinogen Azoxymethane (15 mg/kg by wt, once weekly for 2 weeks) in F344 rats at 8 weeks' age. […] Rats were killed 36 weeks after second AOM and analyzed for inflammatory cytokines and receptors and compared with control diet fed rat colonic tumors.

[3] = stored in food cups for seven days
Experimental: Then aliquots of samples taken from the top, middle and bottom portions of the diets were analyzed for agents homogeneity of the experimental diets. […] Based on this information, frequency of preparation of experimental diets was once a week, and food cups were changed 3 times a week.

[4] = for Major Organ Toxicity / Ulceration (Grade) Colon / Ulceration (Grade) Small Intestine / Ulceration (Grade) Stomach / Liver enzymes ALKP / Liver enzymes ALT / Liver enzymes AST / Liver enzymes LDH: male C57 mice; for Liver enzymes ALKP / Liver enzymes ALT / Liver enzymes AST / Liver enzymes LDH: Mean ± SEM
Experimental: Body weights and symptoms of toxicity were recorded twice weekly for 6 weeks. […] All organs were examined grossly for any abnormalities upon necropsy. Livers, kidney, stomach, intestinal tract, and blood were obtained from the animals and analyzed for Liver enzyme profile, GI ulceration, and levels of test agents.
All animals found dead will be necropsied to confirm that the most likely cause of death was due to intestinal ulcerations.

[5] = system: AOM plus DSS induced colonic inflammation; conditions: for AOM-DSS-Induced Inflammation Score: two weeks, male F344 rats
Experimental: Male F344 rats at 8 weeks of age treated with AOM (15 mg/Kg BW) and exposed to 2% DSS for three days. […] Further, the inflammation was scored by following below criteria:
Inflammation Score based on histological observations using the modified Sydney classification for colonic inflammation:
Following score criteria has been applied: • i. Score 0: No inflammation or changes in the colonic crypt morphology • ii. Score 1. Presence of neutrophil infiltration and chronic lymphocytic inflammation. • iii. Score 2. Surface epithelial damage, mild atrophy, lymphoid follicles • iv. Score 3: Severe atrophy and intestinal metaplasia.

[6] = 800 ppm in diet, AOM-treated male F344 rats
[7] = 800 ppm in diet, saline treated male F344 rats
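For Major Organ Toxicity in this document: gross examination of all organs at necropsy, with liver enzyme profile and GI ulceration assessed in collected tissues and blood.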
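For Ulceration (Grade) Colon in this document: gross examination of all organs at necropsy, with liver enzyme profile and GI ulceration assessed in collected tissues and blood.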
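For Ulceration (Grade) Small Intestine in this document: gross examination of all organs at necropsy, with liver enzyme profile and GI ulceration assessed in collected tissues and blood.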
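For Ulceration (Grade) Stomach in this document: gross examination of all organs at necropsy, with liver enzyme profile and GI ulceration assessed in collected tissues and blood.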

CC1(C)Cc2c(-c3ccccc3)c(-c3ccc(Cl)cc3)c(CC(=O)NCC(=O)O)n2C1 [LFA-9, licofelone-glycine]
Non-Inv AdCa Multiplicity (Mean ± SEM) [1, 6]: 0.20 ± 0.04 Tumors/Rat
Total CRC Tumors (Adenoma + AdCa) incidence (% rats) [1, 6]: (46.6%)
Total CRC Tumors (Adenoma + AdCa) incidence (rats with tumors/rats) [1, 6]: 14/30
AdCA Incidence [1, 7]: 0
AdCA Multiplicity [1, 7]: 0 Tumors/Rat
Adenoma Incidence [1, 7]: 0
Adenoma Multiplicity [1, 7]: 0 Tumors/Rat
Invasive AdCA Incidence [1, 7]: 0
Invasive AdCA Multiplicity [1, 7]: 0 Tumors/Rat
Multiplicity Total CRC Tumors (Adenoma + AdCa) [1, 7]: 0 Tumors/Rat
Non-Inv AdCa Incidence [1, 7]: 0
Non-Inv AdCa Multiplicity [1, 7]: 0 Tumors/Rat
Total CRC Tumors (Adenoma + AdCa) incidence [1, 7]: 0
body weight retardation and observable toxicities ([1]; chronic administration up to 800 ppm in diet, F344 rats): did not show any significant body weight retardation and any observable toxicities
inflammatory cytokines and their receptors (PCR array) in colon tumors versus control [2]: significantly decreased
stability in diet [3]: > 96%
Major Organ Toxicity ([4]; 100 ppm in diet, 6 weeks): None
Ulceration (Grade) Colon ([4]; 100 ppm in diet, 6 weeks): Grade 0
Ulceration (Grade) Small Intestine ([4]; 100 ppm in diet, 6 weeks): Grade 0
Ulceration (Grade) Stomach ([4]; 100 ppm in diet, 6 weeks): Grade 0
Liver enzymes ALKP ([4]; 100 ppm in diet, 6 weeks): 178 ± 32 units/L
Liver enzymes ALT ([4]; 100 ppm in diet, 6 weeks): 82 ± 15 units/L
Liver enzymes AST ([4]; 100 ppm in diet, 6 weeks): 75 ± 8.5 units/L
Liver enzymes LDH ([4]; 100 ppm in diet, 6 weeks): 408 ± 28 units/L
Major Organ Toxicity ([4]; 200 ppm in diet, 6 weeks): None
Ulceration (Grade) Colon ([4]; 200 ppm in diet, 6 weeks): Grade 0
Ulceration (Grade) Small Intestine ([4]; 200 ppm in diet, 6 weeks): Grade 0
Ulceration (Grade) Stomach ([4]; 200 ppm in diet, 6 weeks): Grade 0
Liver enzymes ALKP ([4]; 200 ppm in diet, 6 weeks): 184 ± 30 units/L
Liver enzymes ALT ([4]; 200 ppm in diet, 6 weeks): 98 ± 13 units/L
Liver enzymes AST ([4]; 200 ppm in diet, 6 weeks): 83 ± 10 units/L
Liver enzymes LDH ([4]; 200 ppm in diet, 6 weeks): 394 ± 19 units/L
Major Organ Toxicity ([4]; 400 ppm in diet, 6 weeks): None
Ulceration (Grade) Colon ([4]; 400 ppm in diet, 6 weeks): Grade 0
Ulceration (Grade) Small Intestine ([4]; 400 ppm in diet, 6 weeks): Grade 0
Ulceration (Grade) Stomach ([4]; 400 ppm in diet, 6 weeks): Grade 0
Liver enzymes ALKP ([4]; 400 ppm in diet, 6 weeks): 187 ± 38 units/L
Liver enzymes ALT ([4]; 400 ppm in diet, 6 weeks): 93 ± 15 units/L
Liver enzymes AST ([4]; 400 ppm in diet, 6 weeks): 68 ± 7.5 units/L
Liver enzymes LDH ([4]; 400 ppm in diet, 6 weeks): 379 ± 29 units/L
Major Organ Toxicity ([4]; 800 ppm in diet, 6 weeks): None
Ulceration (Grade) Colon ([4]; 800 ppm in diet, 6 weeks): Grade 0
Ulceration (Grade) Small Intestine ([4]; 800 ppm in diet, 6 weeks): Grade 0
Ulceration (Grade) Stomach ([4]; 800 ppm in diet, 6 weeks): Grade 0
Liver enzymes ALKP ([4]; 800 ppm in diet, 6 weeks): 181 ± 27 units/L
Liver enzymes ALT ([4]; 800 ppm in diet, 6 weeks): 104 ± 13 units/L
Liver enzymes AST ([4]; 800 ppm in diet, 6 weeks): 82 ± 11 units/L
Liver enzymes LDH ([4]; 800 ppm in diet, 6 weeks): 422 ± 43 units/L
body weight loss or gross histological symptoms of toxicity ([4]; 800 ppm in diet, C57BL/6 mice): do not induce any body weight loss or gross histological symptoms of toxicity
Major Organ Toxicity ([4]; 1,600 ppm in diet, 6 weeks): Liver
Ulceration (Grade) Colon ([4]; 1,600 ppm in diet, 6 weeks): Grade 1
Ulceration (Grade) Small Intestine ([4]; 1,600 ppm in diet, 6 weeks): Grade 0
Ulceration (Grade) Stomach ([4]; 1,600 ppm in diet, 6 weeks): Grade 1
Liver enzymes ALKP ([4]; 1,600 ppm in diet, 6 weeks): 288 ± 24 units/L
Liver enzymes ALT ([4]; 1,600 ppm in diet, 6 weeks): 158 ± 18 units/L
Liver enzymes AST ([4]; 1,600 ppm in diet, 6 weeks): 132 ± 17 units/L
Liver enzymes LDH ([4]; 1,600 ppm in diet, 6 weeks): 589 ± 42 units/L
animals died at the end of six-week exposure ([4]; 1,600 ppm in diet, mice): 3 animals
colonic ulceration at microscopic level ([4]; 1,600 ppm in diet, mice): Grade 1 to 2
liver toxicity by gross pathology ([4]; 1,600 ppm in diet, mice): modest liver toxicity
stomach ulceration at microscopic level ([4]; 1,600 ppm in diet, mice): Grades 2 to 3
body weight loss as compared to control diet fed mice body weight gain ([4]; 1,600 ppm in diet, six weeks, mice): ~30%
ulceration ([4]; doses up to 800 ppm in diet): no ulceration
toxicity and body weight gain ([4]; up to 800 ppm in diet, 6 weeks): does not induce any toxicity; also recorded: did not exhibit toxicity
AOM-DSS-Induced Inflammation Score ([5]; 100 ppm in diet): 1
AOM-DSS-Induced Inflammation Score ([5]; 200 ppm in diet): 0 to 1
AOM-DSS-Induced Inflammation Score ([5]; 400 ppm in diet): 0
AOM-DSS-Induced Inflammation Score ([5]; 600 ppm in diet): 0
AOM-DSS-Induced Inflammation Score ([5]; 800 ppm in diet): 0
infiltration of inflammatory cells in colonic mucosa and submucosa ([5]; >100 ppm in diet, AOM-DSS rats): significantly suppressed infiltration of inflammatory cells
inflammation ([5]; >100 ppm in diet, AOM/DSS rats): completely blocked inflammation
inflammation score ([5]; all rats fed LFA-9, lowest to highest doses (100-800 ppm)): Score 1 (lowest to highest doses) or no inflammation
toxicity in male F344 rats ([5]; up to 800 ppm in diet): did not induce significant toxicity
